How the values were obtained:
Format in all cases: biochemical
Conditions in all cases: 5 min 37° C., then iodoacetic acid
F XI = target: T1, F XI (Homo sapiens, UniProt P03951); assay: Coagulation factor XI activity in plasma after reducing agent + iodoacetic acid
T1 construct: from tissue; host or cells: human citrated blood plasma
Experimental: (§1) Human blood with anti-coagulating agent (9 parts blood+1 part 3.8% trisodium citrate) is centrifuged and the following tests with plasma were carried out:
(§2) The plasma is divided into 8 ml portions, which are preheated at 37° C. for 5 min. DTT is added in different concentrations, see table 1 below, and is incubated for 5 min. at 37° C. Then iodoacetic acid, 3 mol per mol DTT, is added, and incubation takes place for 15 min. at 37° C. The plasma samples are distributed in portions of about 0.2 ml and are immediately frozen at -70° C. Testing of different coagulation factors is made in known manner.
(§3) The plasma is divided into 8 ml portions, which are preheated at 37° C. for 5 min. DTE is added in different concentrations (see table 2), and is incubated for 5 minutes at 37° C. Then, iodoacetic acid (3 mol per mol DTE) is added and incubation is carried out for 15 minutes at 37° C. The plasma samples are distributed in portions of about 0.2 ml and are immediately frozen at -70° C. Testing of different coagulation factors is made in a manner known per se.
(§4) The plasma is divided into 8 ml portions, which are preheated at 37° C. for 5 minutes. Lipoic acid is added in different concentrations (see table 3), and is incubated for 5 minutes at 37° C. Then, iodoacetic acid (3 mol per mol lipoic acid) is added and incubation is carried out for 15 minutes at 37° C. The plasma samples are distributed in portions of about 0.2 ml and are immediately frozen at -70° C. Testing of different coagulation factors is made in a manner known per se.
(§5) The plasma is divided into 8 ml portions, which are preheated at 37° C. for 5 minutes. Mercaptoethanol is added in different concentrations (see table 4), and is incubated for 5 minutes at 37° C. Then, iodoacetic acid (3 mol per mol mercaptoethanol) is added and incubation is carried out for 15 minutes at 37° C. The plasma samples are distributed in portions of about 0.2 ml and are immediately frozen at -70° C. Testing of different coagulation factors is made in a manner known per se.
(§6) The plasma is divided into 8 ml portions, which are preheated at 37° C. for 5 minutes. Potassium borohydride is added in different concentrations (see table 5, and is incubated for 5 minutes at 37° C. Then, iodoacetic acid (3 mol per mol potassium borohydride) is added and incubation is carried out for 15 minutes at 37° C. The plasma samples are distributed in portions of about 0.2 ml and are immediately frozen at -70° C. Testing of different coagulation factors is made in a manner known per se.

F II = target: T2, F II (Homo sapiens, UniProt P00734); assay: Coagulation factor II activity in plasma after reducing agent + iodoacetic acid
T2 construct: from tissue; host or cells: human citrated blood plasma
Experimental: as §1, §2, §3, §4, §5, §6

F V = target: T3, F V (Homo sapiens, UniProt P12259); assay: Coagulation factor V activity in plasma after reducing agent + iodoacetic acid
T3 construct: from tissue; host or cells: human citrated blood plasma
Experimental: as §1, §2, §3, §4, §5, §6

[1] = human, 0.1 mg reducing agent/ml plasma (sample C)
[2] = human, 0.6 mg reducing agent/ml plasma
[3] = human, Table 1 sample D, 0.1 mg DTT/ml plasma
[4] = 0.1 mg reducing agent/ml plasma (sample C)
[5] = plasma + 0.14 mg reducing agent
[6] = plasma + 0.28 mg reducing agent

T3 sequence (P12259 29-2224): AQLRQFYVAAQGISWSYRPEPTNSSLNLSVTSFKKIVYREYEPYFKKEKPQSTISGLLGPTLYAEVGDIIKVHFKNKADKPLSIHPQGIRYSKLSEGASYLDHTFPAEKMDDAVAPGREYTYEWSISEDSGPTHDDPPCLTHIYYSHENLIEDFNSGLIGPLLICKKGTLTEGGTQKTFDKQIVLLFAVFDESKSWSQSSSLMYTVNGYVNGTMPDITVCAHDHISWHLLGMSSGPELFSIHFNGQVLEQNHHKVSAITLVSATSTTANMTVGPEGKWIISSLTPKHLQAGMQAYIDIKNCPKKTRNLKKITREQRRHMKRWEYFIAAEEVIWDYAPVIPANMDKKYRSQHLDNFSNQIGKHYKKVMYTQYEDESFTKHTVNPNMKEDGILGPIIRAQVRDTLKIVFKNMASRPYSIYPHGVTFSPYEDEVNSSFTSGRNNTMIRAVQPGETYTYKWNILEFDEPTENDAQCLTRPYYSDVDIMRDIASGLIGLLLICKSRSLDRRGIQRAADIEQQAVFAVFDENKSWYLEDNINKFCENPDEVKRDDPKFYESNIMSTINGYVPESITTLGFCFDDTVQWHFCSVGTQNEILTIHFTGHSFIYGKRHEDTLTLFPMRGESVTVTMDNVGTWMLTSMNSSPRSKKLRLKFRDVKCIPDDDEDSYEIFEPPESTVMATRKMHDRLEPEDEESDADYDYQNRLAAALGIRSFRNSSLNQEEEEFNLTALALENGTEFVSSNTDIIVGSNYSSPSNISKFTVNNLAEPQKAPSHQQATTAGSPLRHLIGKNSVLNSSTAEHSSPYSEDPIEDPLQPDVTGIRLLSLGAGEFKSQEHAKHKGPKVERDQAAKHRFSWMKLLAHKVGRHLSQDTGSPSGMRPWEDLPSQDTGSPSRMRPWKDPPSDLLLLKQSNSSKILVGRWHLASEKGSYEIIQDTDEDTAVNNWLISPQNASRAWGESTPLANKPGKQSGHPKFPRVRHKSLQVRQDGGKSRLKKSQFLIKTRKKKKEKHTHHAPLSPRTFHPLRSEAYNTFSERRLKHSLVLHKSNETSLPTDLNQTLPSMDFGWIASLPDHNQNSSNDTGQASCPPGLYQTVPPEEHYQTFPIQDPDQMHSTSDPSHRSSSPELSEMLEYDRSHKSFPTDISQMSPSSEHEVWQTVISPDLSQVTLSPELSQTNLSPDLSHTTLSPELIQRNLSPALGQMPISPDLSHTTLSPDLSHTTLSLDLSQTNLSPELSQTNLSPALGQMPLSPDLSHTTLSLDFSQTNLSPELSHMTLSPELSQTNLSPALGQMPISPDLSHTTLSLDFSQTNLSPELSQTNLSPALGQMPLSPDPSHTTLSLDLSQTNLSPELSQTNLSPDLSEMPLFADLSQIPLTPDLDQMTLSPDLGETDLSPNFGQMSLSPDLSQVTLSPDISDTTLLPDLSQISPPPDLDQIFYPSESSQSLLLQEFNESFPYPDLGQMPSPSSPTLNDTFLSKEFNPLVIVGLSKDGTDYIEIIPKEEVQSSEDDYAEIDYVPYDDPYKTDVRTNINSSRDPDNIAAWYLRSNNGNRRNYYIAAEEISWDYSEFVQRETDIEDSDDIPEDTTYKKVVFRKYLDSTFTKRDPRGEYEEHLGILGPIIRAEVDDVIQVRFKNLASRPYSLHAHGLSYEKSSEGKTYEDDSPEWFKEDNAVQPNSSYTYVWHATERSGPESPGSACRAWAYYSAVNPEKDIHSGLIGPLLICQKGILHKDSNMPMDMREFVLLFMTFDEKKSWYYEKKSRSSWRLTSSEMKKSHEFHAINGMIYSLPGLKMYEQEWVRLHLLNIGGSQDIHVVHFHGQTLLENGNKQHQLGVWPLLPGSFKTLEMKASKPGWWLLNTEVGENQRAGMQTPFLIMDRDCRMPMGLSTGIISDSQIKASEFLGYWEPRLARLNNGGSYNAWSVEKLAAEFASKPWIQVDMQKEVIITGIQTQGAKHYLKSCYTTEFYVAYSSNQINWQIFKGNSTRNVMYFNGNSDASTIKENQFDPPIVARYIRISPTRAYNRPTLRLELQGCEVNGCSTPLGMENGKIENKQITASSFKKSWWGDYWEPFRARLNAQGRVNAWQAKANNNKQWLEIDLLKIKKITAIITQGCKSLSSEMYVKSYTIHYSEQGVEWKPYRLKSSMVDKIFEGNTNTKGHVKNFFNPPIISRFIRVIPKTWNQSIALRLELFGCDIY
T1 sequence (P03951 19-625): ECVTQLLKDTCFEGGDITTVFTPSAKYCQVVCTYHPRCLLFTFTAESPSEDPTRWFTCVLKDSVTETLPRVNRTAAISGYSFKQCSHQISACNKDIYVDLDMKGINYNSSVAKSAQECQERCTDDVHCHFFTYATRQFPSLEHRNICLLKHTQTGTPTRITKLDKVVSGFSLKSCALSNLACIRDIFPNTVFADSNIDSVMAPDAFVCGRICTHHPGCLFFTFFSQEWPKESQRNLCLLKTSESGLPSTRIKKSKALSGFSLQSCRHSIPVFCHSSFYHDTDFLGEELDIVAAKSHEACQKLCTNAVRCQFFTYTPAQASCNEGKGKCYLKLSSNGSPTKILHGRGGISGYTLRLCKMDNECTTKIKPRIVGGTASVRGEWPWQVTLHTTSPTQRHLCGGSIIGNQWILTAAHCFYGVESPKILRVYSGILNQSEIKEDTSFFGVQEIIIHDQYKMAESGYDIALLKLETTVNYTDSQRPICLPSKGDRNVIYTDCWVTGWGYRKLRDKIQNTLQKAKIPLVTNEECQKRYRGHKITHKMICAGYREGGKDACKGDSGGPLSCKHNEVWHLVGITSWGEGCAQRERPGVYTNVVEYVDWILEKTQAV

| Compound | activity at 100 µg/mL (F XI; [1]) | Coagulation factor F XI (F XI; plasma + 0.4 mg reducing agent) | activity at 100 µg/mL (F II; [1]) | Coagulation factor F II (F II; plasma + 0.4 mg reducing agent) | Coagulation factor F V (F V; [4]) | Coagulation factor F V (F V; plasma + 0.4 mg reducing agent) | Coagulation factor F XI (F XI; plasma + 0.2 mg reducing agent) | Coagulation factor F II (F II; plasma + 0.2 mg reducing agent) | Coagulation factor F V (F V; plasma + 0.2 mg reducing agent) | further results |
| --- | --- | --- | --- | --- | --- | --- | --- | --- | --- | --- |
| O[C@H](CS)[C@H](O)CS [DTT, dithiothreitol] | 47% | 0 % of control | 101% | 41 % of control | 94 % of control | 85 % of control | – | – | – | activity at 600 µg/mL (F XI; [2]): 0%; activity at 100 µg/mL (F XI; [3]): 9%; activity at 600 µg/mL (F II; [2]): 33%; activity at 100 µg/mL (F II; [3]): 69%; Coagulation factor F V (F V; 0.6 mg reducing agent/ml plasma): 90 % of control; Coagulation factor F V (F V; Table 1 sample D, 0.1 mg DTT/ml plasma): 90 % of control |
| O=C(O)CCCCC1CCSS1 (stereo not drawn) [lipoic acid] | 67% | 39 % of control | 100% | 103 % of control | 100 % of control | 215 % of control | 32 % of control | 103 % of control | 91 % of control | – |
| [BH4-].[K+] [KBH4, potassium borohydride] | – | – | – | – | – | – | – | – | – | Coagulation factor F XI (F XI; [5]): 94 % of control; Coagulation factor F XI (F XI; [6]): 107 % of control; Coagulation factor F II (F II; [5]): 92 % of control; Coagulation factor F II (F II; [6]): 96 % of control; Coagulation factor F V (F V; [5]): 74 % of control; Coagulation factor F V (F V; [6]): 93 % of control |
| O[C@H](CS)[C@@H](O)CS [DTE, dithioerythritol] | 66% | 0 % of control | 90% | 35 % of control | 99 % of control | 90 % of control | 3 % of control | 66 % of control | 99 % of control | – |
| OCCS [mercaptoethanol] | – | 62 % of control | – | 74 % of control | – | 84 % of control | 74 % of control | 89 % of control | 61 % of control | – |
